Where two headings read alike, the source gives them in different places.
Columns and labels:
Aurora-1 (Aurora B) = Aurora-1 (Aurora B) (Homo sapiens, UniProt Q96GD4); assay: Aurora-1 (Aurora B) inhibition assay (radiometric); assay type: biochemical; conditions: read-out: Aurora B kinase Ki value
Procedure: An assay buffer solution was prepared which consisted of 25 mM HEPES (pH 7.5), 10 mM MgCl2, 0.1% BSA and 10% glycerol. […] To 22 μL of the Aurora-B solution, in a 96-well plate, was added 2 μl of a compound stock solution in DMSO and the mixture allowed to equilibrate for 10 minutes at 25° C. The enzyme reaction was initiated by the addition of 16 μl stock [γ-^33P]-ATP solution (˜20 nCi/μL) prepared in assay buffer, to a final assay concentration of 800 μM. The reaction was stopped after 3 hours by the addition of 16 μL 500 mM phosphoric acid and the levels of ^33P incorporation into the peptide substrate were determined by the following method.
A phosphocellulose 96-well plate (Millipore, Cat no. MAPHNOB50) was pre-treated with 100 μL of a 100 mM phosphoric acid prior to the addition of the enzyme reaction mixture (40 μL). The solution was left to soak on to the phosphocellulose membrane for 30 minutes and the plate subsequently washed four times with 200 μL of a 100 mM phosphoric acid. […] Levels of non-enzyme catalyzed background radioactivity were determined by adding 16 μL of the 500 mM phosphoric acid to control wells, containing all assay components (which acts to denature the enzyme), prior to the addition of the [γ-^33P]-ATP solution. Levels of enzyme catalyzed. ^33P incorporation were calculated by subtracting mean background counts from those measured at each inhibitor concentration. […] Ki values were calculated from initial rate data by non-linear regression using the Prism software package (Prism 3.0, Graphpad Software, San Diego, Calif.).

JAK3 = molecular target: T1, JAK3 (Homo sapiens, UniProt P52333); assay: biochemical
T1 sequence (P52333 1-1124): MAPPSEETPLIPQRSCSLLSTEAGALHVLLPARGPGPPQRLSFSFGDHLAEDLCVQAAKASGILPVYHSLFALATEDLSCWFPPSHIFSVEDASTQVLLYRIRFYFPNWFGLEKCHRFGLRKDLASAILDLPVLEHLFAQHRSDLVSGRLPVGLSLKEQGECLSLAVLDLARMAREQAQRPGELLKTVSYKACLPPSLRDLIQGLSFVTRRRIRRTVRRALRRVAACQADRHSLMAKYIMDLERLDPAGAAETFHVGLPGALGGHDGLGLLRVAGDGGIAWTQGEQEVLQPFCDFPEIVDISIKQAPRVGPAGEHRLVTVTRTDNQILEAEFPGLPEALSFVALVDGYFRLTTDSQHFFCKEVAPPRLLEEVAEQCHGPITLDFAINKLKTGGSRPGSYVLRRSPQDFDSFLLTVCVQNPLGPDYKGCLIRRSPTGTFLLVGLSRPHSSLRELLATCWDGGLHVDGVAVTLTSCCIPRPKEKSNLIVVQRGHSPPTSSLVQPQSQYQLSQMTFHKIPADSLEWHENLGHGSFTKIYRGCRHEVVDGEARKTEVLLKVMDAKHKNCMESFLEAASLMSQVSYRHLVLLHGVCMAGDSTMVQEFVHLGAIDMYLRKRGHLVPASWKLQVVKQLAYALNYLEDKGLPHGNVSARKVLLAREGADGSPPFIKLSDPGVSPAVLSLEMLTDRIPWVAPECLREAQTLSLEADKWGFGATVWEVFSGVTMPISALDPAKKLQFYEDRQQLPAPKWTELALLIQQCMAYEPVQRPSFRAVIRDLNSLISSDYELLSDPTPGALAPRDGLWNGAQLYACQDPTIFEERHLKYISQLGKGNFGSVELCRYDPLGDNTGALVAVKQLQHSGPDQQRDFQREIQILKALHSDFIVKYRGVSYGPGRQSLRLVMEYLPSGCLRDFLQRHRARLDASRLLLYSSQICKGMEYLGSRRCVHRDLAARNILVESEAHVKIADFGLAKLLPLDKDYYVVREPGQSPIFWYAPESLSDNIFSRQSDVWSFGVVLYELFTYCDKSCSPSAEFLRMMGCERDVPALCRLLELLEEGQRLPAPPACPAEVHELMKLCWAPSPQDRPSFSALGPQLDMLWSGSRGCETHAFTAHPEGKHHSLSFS

Colo205 cells = assay: Analysis of cell proliferation and viability; assay type: cell-based; conditions: Homo sapiens, read-out: IC50 value
Procedure: Colo205 cells were seeded in 96 well plates and serially diluted compound was added to the wells in duplicate. Control groups included untreated cells, the compound diluent (0.1% DMSO alone) and culture medium without cells.
To measure proliferation, 3 h prior to the end of the experiment 0.5 μCi of 3H thymidine was added to each well. Cells were then harvested and the incorporated radioactivity counted on a Wallac microplate beta-counter. Cell viability was assessed using Promega CellTiter 96AQ to measure MTS conversion. Dose response curves were calculated using either Prism 3.0 (GraphPad) or SoftMax Pro 4.3.1 LS (Molecular Devices) software.

Aurora-2 (Aurora A) = molecular target: T2, Aurora-2 (Aurora A) (Homo sapiens, UniProt O14965); assay: Aurora-2 (Aurora A) inhibition assay, coupled enzyme; assay type: biochemical; conditions: read-out: Aurora A kinase Ki value
T2 sequence (O14965 1-403): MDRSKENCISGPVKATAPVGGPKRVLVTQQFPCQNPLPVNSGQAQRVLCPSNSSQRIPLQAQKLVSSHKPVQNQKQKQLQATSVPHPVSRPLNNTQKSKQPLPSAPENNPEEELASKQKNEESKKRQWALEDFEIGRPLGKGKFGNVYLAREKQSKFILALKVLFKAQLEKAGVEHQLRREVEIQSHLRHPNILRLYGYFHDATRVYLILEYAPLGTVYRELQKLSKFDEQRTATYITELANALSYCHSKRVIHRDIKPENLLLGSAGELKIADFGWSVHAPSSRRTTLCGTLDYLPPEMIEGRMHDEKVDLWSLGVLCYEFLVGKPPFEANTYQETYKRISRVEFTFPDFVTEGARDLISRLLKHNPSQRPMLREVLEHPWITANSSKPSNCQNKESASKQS
Procedure: Assays were carried out in a mixture of 100 mM Hepes (pH7.5), 10 mM MgCl2, 1 mM DTT, 25 mM NaCl, 2.5 mM phosphoenolpyruvate, 300 μM NADH, 30 μg/ml pyruvate kinase and 10 μg/ml lactate dehydrogenase. […] Assays were carried out at 30° C. and in the presence of 40 nM Aurora-2.
The plate was preincubated for 10 minutes at 30° C. and the reaction initiated by addition of 10 μl of Aurora-2. Initial reaction rates were determined with a Molecular Devices SpectraMax Plus plate reader over a 10 minute time course. IC50 and Ki data were calculated from non-linear regression analysis using the Prism software package (GraphPad Prism version 3.0cx for Macintosh, GraphPad Software, San Diego Calif., USA).

[1] = COLO 205, Colo205 cells, incubated for 96 hours
[2] = COLO 205, Colo205 cells, incubated for 72 hours

Sequence of Aurora-1 (Aurora B) (Q96GD4 whole entry): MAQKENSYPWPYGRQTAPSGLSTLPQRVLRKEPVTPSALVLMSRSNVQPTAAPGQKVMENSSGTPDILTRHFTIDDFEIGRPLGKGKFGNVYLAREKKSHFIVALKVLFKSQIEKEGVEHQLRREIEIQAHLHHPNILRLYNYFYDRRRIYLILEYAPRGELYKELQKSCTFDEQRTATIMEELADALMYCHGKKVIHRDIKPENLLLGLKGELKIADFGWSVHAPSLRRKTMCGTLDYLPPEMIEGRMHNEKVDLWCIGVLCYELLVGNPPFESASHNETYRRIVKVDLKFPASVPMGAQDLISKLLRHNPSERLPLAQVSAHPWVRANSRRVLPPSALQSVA

Structure (SMILES)	Ki (Aurora-1 (Aurora B))	Ki (JAK3)	IC50 (Colo205 cells; [1])	IC50 (Colo205 cells; [2])	Ki (Aurora-2 (Aurora A))	Ki (JAK3; read-out: JAK3 Ki value)	IC50 (Colo205 cells; COLO 205, 72 h)
Cc1cc(Nc2cc(N3CCC3)nc(Sc3ccc(NC(=O)c4cccc(CN(C)C)c4)cc3)n2)[nH]n1 [Compound 138]	50 to 2000 nM	500 to 2000 nM	50 to 1000 nM	–	–	–	–
Cc1cc(Nc2cc(N3CC(F)(C4CC4)C3)nc(Sc3ccc(NC(=O)C4CC4)cc3F)n2)n[nH]1 [Compound 170]	–	10 to 500 nM	–	≤ 30 nM	–	–	–
Cc1cc(Nc2cc(N3CC(F)(C4CC4)C3)nc(Sc3ccc(NC(=O)CC4CC4)cc3)n2)[nH]n1 [Compound 171]	–	500 to 2000 nM	–	30 to 200 nM	–	–	–
Cc1cc(Nc2cc(N3CC(F)(C4CC4)C3)nc(Sc3ccc4c(c3)CN(CC(F)(F)F)C4=O)n2)[nH]n1 [Compound 179]	≤ 10 nM	–	–	30 to 200 nM	≤ 1 nM	10 to 500 nM	–
Cc1cc(Nc2cc(N3CC(O)(C4CC4)C3)nc(Oc3ccc4nc(C)sc4c3)n2)[nH]n1 [Compound 180]	10 to 50 nM	≤ 10 nM	–	30 to 200 nM	≤ 1 nM	–	–
Cc1cc(Nc2cc(N3CC(F)(C4CC4)C3)nc(Sc3ccc4nc(CC(F)(F)F)n(C)c4c3)n2)[nH]n1 [Compound 187]	≤ 10 nM	–	–	≤ 30 nM	≤ 1 nM	–	–
Cc1cc(Nc2nc(Sc3ccc(NC(=O)c4ccccc4Cl)cc3)nc(N3CCC3)c2F)[nH]n1 [Compound 192]	10 to 50 nM	500 to 2000 nM	–	> 200 nM	1 to 5 nM	–	–
Cc1cc(Nc2cc(N3CC(F)(C4CC4)C3)nc(Sc3ccc(NC(=O)C4CC4(F)F)cc3)n2)[nH]n1 (centres unmarked) [Compound 194]	–	10 to 500 nM	–	≤ 30 nM	–	–	–
CCC1(F)CN(c2cc(Nc3cc(C)n[nH]3)nc(Sc3ccc(NC(=O)CC(F)(F)F)cc3)n2)C1 [Compound 196]	≤ 10 nM	–	–	≤ 30 nM	≤ 1 nM	–	–
CCC(=O)Nc1ccc(Sc2nc(CCN3CCC3)cc(Nc3cc(C)n[nH]3)n2)cc1 [Compound 197]	50 to 2000 nM	–	–	> 200 nM	5 to 200 nM	–	–
Cc1cc(Nc2cc(N3CCC3)nc(Sc3ccc(NC(=O)c4ncccc4C)cc3)n2)[nH]n1 [Compound 200]	50 to 2000 nM	–	–	> 200 nM	5 to 200 nM	–	–
CC(=O)Nc1ccc(Nc2nc(Nc3cc(C)n[nH]3)cc(N3CC(F)(C4CC4)C3)n2)cc1 [Compound 201]	50 to 2000 nM	–	50 to 1000 nM	–	5 to 200 nM	–	–
Cc1cc(Nc2cc(NCC3(C)COC3)nc(Sc3ccc(NC(=O)c4ccccc4Cl)cc3)n2)[nH]n1 [Compound 208]	≤ 10 nM	–	–	30 to 200 nM	≤ 1 nM	–	–
Cc1cc(Nc2cc(N3CC(F)(C4CC4)C3)nc(Nc3ccc4nc(C(F)(F)F)[nH]c4c3)n2)[nH]n1 [Compound 210]	50 to 2000 nM	–	–	> 200 nM	1 to 5 nM	–	–
Cc1cc(Nc2cc(N3CC(F)(C4CC4)C3)nc(Sc3ccc(NC(=O)CC(F)(F)F)nc3)n2)[nH]n1 [Compound 211]	–	≤ 10 nM	–	–	–	–	≤ 30 nM

From patent US8637511B2, “Aminopyrimidines useful as kinase inhibitors” (Vertex Pharmaceuticals Incorporated, priority 2005, dated 2014)
